Results published in ChEMBL document CHEMBL4385620, “Inhibition of polypeptide N-acetyl-α-galactosaminyltransferases is an underlying mechanism of dietary polyphenols preventing colorectal tumorigenesis” (Bioorg Med Chem, 2019).
Activity calls are given as the source filed them. The rule behind the calls is not given here.

How the values were obtained:
[1] = target: T1, Polypeptide N-acetylgalactosaminyltransferase 2 (Homo sapiens, UniProt Q10471); test: Binding affinity of human recombinant FLAG-tagged ppGalNAcT2 expressed in HEK293 cells assessed as dissociation rate by SPR analysis
T1 sequence (Q10471 whole entry): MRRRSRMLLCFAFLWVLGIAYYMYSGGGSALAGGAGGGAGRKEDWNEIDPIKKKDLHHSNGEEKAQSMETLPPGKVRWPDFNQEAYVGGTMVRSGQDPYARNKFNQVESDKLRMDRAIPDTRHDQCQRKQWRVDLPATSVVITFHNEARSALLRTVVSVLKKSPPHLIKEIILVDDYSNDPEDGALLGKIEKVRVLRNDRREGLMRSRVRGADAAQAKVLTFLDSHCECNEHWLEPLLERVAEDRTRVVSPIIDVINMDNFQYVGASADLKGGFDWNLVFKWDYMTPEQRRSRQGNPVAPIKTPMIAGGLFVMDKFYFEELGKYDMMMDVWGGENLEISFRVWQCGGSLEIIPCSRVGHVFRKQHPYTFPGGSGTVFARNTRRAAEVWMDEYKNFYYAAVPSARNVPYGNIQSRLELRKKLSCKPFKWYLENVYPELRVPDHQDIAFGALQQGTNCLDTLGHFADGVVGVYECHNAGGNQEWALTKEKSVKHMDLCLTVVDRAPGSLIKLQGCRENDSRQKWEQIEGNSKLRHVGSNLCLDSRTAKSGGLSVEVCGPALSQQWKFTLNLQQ

[2] = target: T1, Polypeptide N-acetylgalactosaminyltransferase 2; test: Inhibition of catalytic activity of human recombinant FLAG-tagged ppGalNAcT2 expressed in HEK293T cells and using 5-FAM labelled-EA2 peptide as substrate incubated for 30 mins by HPLC-based enzyme assay
Homo sapiens = species: Homo sapiens; test: Ratio of IC50 for IC50 for human recombinant FLAG-tagged ppGalNAcT2 W282A mutant to IC50 for human recombinant FLAG-tagged ppGalNAcT2
[3] = target: T1, Polypeptide N-acetylgalactosaminyltransferase 2; test: Binding affinity of human recombinant FLAG-tagged ppGalNAcT2 expressed in HEK293 cells assessed as association rate by SPR analysis
[4] = target: Polypeptide N-acetylgalactosaminyltransferase 2 (Homo sapiens, UniProt Q10471, W282A); test: Inhibition of catalytic activity of human recombinant FLAG-tagged ppGalNAcT2 W282A mutant expressed in HEK293 cells using EA2 peptide as substrate by HPLC-based enzyme assay
Chain of Polypeptide N-acetylgalactosaminyltransferase 2 (Homo sapiens, UniProt Q10471, W282A) (Q10471 whole entry W282A): as the sequence (Q10471 whole entry) above, with W282A counted along it

[5] = target: T1, Polypeptide N-acetylgalactosaminyltransferase 2; test: Binding affinity of human recombinant FLAG-tagged ppGalNAcT2 expressed in HEK293 cells assessed as dissociation constant by SPR analysis
[6] = target: T1, Polypeptide N-acetylgalactosaminyltransferase 2; test: Inhibition of ppGalNAcT2 in human HT-29 cells assessed as reduction in O-GalNAc glycans by measuring PNA lectin signal on cell surface at 40 uM incubated for 48 hrs by DAPI staining based immunofluorescence method

Structure (SMILES)	koff [1]	IC50 [2]	Ratio IC50 (Homo sapiens)	kon [3]	IC50 [4]	Kd [5]	inhibition [6]
O=c1oc2c(O)c(O)cc3c(=O)oc4c(O)c(O)cc1c4c23 [ELLAGIC ACID]	8.79 ×10⁻⁴ /s	510 nM	6	2367 M⁻¹ s⁻¹	2930 nM	371 nM	Active
COc1c(O)cc2c(=O)oc3c(OC)c(O)cc4c(=O)oc1c2c34	–	> 100000 nM	–	–	–	–	–
c1cc2ccc3cccc4ccc(c1)c2c34 [PYRENE]	–	> 100000 nM	–	–	–	–	inactive
O=c1oc2cc(O)ccc2c2ccccc12	–	> 100000 nM	–	–	–	–	–
O=C(O)c1cc(O)c(O)c(O)c1 [GALLIC ACID]	1.34 ×10⁻³ /s	1370 nM	–	1454 M⁻¹ s⁻¹	–	924 nM	–
